Test results reported in publication PMC7180948, “New Insights into 4-Anilinoquinazolines as Inhibitors of Cardiac Troponin I–Interacting Kinase (TNNi3K)” (Molecules, 2020).

Tests used:
Assay in all cases: biochemical
Set-up in all cases: KINOMEscan competition binding panel (Eurofins DiscoverX), single concentration, % inhibition
Conditions in all cases: read-out: 7 at 1 µM % inhibition
[1] = target: PIP5K1C (Homo sapiens, UniProt O60331)
Outline: (§1)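 KINOMEscan selectivity screen; >400 human kinases; compound at 1 µM, single concentration.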

[2] = target: T1, RPS6KA4(Kin.Dom.2-C-terminal) (Homo sapiens, UniProt O75676)
T1 construct: Kin.Dom.2-C-terminal
T1 sequence (O75676 whole entry): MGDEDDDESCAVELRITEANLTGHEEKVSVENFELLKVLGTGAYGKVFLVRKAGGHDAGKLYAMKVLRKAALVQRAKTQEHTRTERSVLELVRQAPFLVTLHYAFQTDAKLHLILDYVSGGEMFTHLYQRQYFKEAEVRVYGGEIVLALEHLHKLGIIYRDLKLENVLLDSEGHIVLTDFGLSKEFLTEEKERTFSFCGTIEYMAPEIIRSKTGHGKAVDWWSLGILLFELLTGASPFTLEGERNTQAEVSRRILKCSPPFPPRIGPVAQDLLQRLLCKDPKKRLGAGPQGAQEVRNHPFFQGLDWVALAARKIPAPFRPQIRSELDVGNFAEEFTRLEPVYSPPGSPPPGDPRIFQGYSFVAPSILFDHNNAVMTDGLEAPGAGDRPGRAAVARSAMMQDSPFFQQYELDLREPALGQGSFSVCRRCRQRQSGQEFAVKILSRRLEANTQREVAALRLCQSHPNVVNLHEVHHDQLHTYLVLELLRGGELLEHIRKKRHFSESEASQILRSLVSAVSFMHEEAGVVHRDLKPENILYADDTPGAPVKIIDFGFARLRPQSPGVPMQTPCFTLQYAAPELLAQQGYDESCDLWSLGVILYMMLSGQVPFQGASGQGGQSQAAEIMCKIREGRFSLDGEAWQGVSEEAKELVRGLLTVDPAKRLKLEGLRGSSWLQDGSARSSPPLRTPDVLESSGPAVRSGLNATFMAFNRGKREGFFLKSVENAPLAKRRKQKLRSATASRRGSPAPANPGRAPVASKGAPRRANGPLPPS
Outline: as §1

[3] = target: BMPR1B (Homo sapiens, UniProt O00238)
Outline: as §1

[4] = target: GSK3B (Homo sapiens, UniProt P49841)
Outline: as §1

[5] = target: STK35 (Homo sapiens, UniProt Q8TDR2)
Sequence of STK35 (Q8TDR2 whole entry): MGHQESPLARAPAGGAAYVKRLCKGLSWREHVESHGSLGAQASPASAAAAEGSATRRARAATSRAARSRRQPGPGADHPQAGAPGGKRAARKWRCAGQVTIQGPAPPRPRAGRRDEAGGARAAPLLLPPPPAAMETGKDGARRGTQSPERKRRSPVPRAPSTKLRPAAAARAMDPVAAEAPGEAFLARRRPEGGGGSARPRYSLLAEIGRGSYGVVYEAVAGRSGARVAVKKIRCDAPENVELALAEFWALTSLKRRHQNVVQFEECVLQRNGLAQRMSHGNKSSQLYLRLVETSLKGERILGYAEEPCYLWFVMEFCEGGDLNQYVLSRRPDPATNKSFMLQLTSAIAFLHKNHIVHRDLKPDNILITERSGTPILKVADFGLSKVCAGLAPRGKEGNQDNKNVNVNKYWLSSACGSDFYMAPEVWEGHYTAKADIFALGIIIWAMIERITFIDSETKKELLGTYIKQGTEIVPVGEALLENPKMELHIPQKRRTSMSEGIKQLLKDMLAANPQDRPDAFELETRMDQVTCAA
Outline: as §1

[6] = target: T2, ERK1 (Homo sapiens, UniProt P27361)
T2 construct: gene MAPK3
Outline: as §1

[7] = target: AKT1 (Homo sapiens, UniProt P31749)
Outline: as §1

[8] = target: WEE2 (Homo sapiens, UniProt P0C1S8)
Outline: as §1

[9] = target: T3, PCTK3 (Homo sapiens, UniProt Q07002)
T3 construct: gene CDK18
Outline: as §1

[10] = target: MET (Homo sapiens, UniProt P08581)
Sequence of MET (P08581 whole entry): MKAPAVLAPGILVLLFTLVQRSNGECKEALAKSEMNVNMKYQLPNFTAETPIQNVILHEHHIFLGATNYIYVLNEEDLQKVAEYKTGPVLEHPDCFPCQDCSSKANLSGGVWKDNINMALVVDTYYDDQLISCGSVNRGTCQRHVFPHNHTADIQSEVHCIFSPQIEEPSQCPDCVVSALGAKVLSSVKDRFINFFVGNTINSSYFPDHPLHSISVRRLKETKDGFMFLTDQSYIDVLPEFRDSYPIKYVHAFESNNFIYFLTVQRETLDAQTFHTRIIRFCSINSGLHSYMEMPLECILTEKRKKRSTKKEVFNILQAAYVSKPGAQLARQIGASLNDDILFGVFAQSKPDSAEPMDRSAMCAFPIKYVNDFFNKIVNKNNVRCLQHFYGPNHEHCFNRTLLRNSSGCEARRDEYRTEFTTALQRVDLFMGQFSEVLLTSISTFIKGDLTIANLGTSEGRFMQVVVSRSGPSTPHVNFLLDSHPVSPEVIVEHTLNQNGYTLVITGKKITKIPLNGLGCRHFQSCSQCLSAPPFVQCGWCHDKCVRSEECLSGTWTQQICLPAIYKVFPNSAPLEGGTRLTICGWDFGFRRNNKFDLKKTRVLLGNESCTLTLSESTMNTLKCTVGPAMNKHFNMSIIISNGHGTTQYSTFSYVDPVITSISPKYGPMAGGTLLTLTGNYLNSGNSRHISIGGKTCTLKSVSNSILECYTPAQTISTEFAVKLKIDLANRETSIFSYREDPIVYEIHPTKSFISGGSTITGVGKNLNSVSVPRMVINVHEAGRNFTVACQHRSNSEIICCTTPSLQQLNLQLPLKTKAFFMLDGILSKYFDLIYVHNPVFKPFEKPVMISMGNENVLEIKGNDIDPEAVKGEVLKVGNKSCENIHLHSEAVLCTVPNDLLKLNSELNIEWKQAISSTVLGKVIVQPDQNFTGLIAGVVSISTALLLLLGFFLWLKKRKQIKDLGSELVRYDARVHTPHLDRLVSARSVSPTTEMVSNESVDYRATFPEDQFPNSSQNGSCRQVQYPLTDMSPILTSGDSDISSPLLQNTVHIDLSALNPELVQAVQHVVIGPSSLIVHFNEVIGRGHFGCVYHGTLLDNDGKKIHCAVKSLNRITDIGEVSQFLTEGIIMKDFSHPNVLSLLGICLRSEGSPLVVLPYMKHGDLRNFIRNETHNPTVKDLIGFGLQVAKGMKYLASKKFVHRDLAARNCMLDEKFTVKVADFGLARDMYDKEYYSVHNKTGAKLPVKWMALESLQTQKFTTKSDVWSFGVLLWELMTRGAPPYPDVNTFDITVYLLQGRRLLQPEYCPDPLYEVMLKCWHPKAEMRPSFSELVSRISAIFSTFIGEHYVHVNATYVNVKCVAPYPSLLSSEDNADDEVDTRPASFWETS
Outline: as §1

[11] = target: T4, p38-delta (Homo sapiens, UniProt O15264)
T4 construct: gene MAPK13
Outline: as §1

[12] = target: MYLK4 (Homo sapiens, UniProt Q86YV6)
Sequence of MYLK4 (Q86YV6 whole entry): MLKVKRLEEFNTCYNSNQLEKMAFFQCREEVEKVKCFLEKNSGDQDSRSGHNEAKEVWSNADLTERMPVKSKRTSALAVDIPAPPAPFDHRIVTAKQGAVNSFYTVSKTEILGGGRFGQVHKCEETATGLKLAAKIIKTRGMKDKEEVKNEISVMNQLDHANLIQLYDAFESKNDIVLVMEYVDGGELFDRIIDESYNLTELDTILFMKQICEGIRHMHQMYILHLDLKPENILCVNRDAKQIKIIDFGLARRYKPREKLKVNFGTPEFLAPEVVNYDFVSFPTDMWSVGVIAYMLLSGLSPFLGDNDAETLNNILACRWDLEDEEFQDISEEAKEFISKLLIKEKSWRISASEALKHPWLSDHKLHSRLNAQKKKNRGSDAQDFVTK
Outline: as §1

[13] = target: T5, ABL1(H396P)-nonphosphorylated (Homo sapiens, UniProt P00519, H396P)
T5 construct: nonphosphorylated
Outline: as §1

[14] = target: ZAP70 (Homo sapiens, UniProt P43403)
Sequence of ZAP70 (P43403 whole entry): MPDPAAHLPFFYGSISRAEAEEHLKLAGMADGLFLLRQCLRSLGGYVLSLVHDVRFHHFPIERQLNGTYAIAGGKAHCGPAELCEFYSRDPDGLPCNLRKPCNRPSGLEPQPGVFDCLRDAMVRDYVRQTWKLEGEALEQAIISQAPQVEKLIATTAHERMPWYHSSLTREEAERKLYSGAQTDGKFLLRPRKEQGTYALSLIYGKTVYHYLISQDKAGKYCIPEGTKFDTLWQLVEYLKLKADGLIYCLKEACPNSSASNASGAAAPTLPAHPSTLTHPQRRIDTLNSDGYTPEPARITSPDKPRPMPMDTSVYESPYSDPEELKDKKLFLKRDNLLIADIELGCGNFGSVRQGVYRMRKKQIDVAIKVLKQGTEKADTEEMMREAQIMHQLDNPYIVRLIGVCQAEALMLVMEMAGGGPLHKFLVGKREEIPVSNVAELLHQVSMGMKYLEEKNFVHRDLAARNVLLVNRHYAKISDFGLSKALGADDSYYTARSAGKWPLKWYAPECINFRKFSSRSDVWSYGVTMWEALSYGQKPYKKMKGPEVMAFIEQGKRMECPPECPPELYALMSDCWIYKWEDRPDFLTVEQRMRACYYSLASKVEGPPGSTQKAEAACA
Outline: as §1

[15] = target: FLT3 (Homo sapiens, UniProt P36888)
Outline: as §1

[16] = target: T6, DCAMKL1 (Homo sapiens, UniProt O15075)
T6 construct: gene DCLK1
Outline: as §1

[17] = target: MAP3K4 (Homo sapiens, UniProt Q9Y6R4)
Outline: as §1

[18] = target: T7, PIK4CB (Homo sapiens, UniProt Q9UBF8)
T7 construct: gene PI4KB
Outline: as §1

[19] = target: PIK3CA(I800L) (Homo sapiens, UniProt P42336, I800L)
Outline: as §1

[20] = target: PRKD3 (Homo sapiens, UniProt O94806)
Outline: as §1

[21] = target: CSK (Homo sapiens, UniProt P41240)
Sequence of CSK (P41240 whole entry): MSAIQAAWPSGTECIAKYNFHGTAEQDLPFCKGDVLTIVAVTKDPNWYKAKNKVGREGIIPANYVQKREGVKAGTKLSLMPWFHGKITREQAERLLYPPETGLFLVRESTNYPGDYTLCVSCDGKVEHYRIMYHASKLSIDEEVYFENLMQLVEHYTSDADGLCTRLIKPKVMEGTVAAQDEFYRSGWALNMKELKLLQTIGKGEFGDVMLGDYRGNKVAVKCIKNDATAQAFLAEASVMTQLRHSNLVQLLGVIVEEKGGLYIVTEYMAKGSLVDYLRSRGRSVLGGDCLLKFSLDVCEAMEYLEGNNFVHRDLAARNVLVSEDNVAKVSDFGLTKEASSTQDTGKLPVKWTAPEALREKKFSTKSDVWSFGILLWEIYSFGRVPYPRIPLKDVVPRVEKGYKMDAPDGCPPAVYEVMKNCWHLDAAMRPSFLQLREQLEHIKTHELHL
Outline: as §1

[22] = target: TLK1 (Homo sapiens, UniProt Q9UKI8)
Outline: as §1

[23] = target: IRAK4 (Homo sapiens, UniProt Q9NWZ3)
Outline: as §1

[24] = target: BUB1 (Homo sapiens, UniProt O43683)
Outline: as §1

Sequence of PIP5K1C (O60331 whole entry): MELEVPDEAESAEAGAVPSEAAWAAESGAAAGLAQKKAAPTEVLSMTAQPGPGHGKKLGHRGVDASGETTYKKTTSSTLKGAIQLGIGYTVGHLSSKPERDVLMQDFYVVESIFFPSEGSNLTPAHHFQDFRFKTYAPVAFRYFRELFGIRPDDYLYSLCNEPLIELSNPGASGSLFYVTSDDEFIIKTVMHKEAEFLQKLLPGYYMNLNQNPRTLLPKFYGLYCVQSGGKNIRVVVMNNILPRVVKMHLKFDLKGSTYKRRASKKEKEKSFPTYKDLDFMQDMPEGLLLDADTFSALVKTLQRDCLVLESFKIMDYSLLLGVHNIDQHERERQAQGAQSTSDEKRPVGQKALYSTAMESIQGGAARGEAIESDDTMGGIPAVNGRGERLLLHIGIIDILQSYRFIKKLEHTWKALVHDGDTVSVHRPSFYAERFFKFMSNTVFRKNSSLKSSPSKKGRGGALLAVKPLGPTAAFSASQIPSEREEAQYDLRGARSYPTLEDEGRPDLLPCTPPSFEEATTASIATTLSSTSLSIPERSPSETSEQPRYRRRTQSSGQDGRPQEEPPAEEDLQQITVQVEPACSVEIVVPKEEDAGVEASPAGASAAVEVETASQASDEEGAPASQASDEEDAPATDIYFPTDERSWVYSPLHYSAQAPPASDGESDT

CNS(=O)(=O)c1ccc(N(C)C)c(Nc2ncnc3cc(OC)c(OC)cc23)c1 [compound 7, 3-((6,7-dimethoxyquinazolin-4-yl)amino)-4-(dimethylamino)-N-methylbenzenesulfonamide] gave an inhibition at 1 µM [1] of 33%, an inhibition at 1 µM [2] of 9% and an inhibition at 1 µM [3] of 34%. The inhibition at 1 µM [4] was 0%, the inhibition at 1 µM [5] was 0% and the inhibition at 1 µM [6] was 0%. For the same compound, the inhibition at 1 µM [7] was 0%, the inhibition at 1 µM [8] was 0% and the inhibition at 1 µM [9] was 0%. For the same compound, the inhibition at 1 µM [10] was 3%, the inhibition at 1 µM [11] was 0% and the inhibition at 1 µM [12] was 0%. For the same compound, the inhibition at 1 µM [13] was 73%, the inhibition at 1 µM [14] was 53% and the inhibition at 1 µM [15] was 7%. The inhibition at 1 µM [16] was 12%, the inhibition at 1 µM [17] was 0% and the inhibition at 1 µM [18] was 14%. For the same compound, the inhibition at 1 µM [19] was 56%, the inhibition at 1 µM [20] was 7% and the inhibition at 1 µM [21] was 0%. For the same compound, the inhibition at 1 µM [22] was 0%, the inhibition at 1 µM [23] was 56% and the inhibition at 1 µM [24] was 8%.
